This assay has as its target mTOR/GbL/Raptor (mTORC1) (Homo sapiens, UniProt P42345). Put plainly: mTOR/GbL/Raptor (mTORC1) ELISA assay. The following applies: phosphorylation of 4E-BP1; 0.2 nM mTORC1, 10 μM ATP; read-out: IC50 in this assay (mTORC1 ELISA). The format is biochemical. An outline of the steps:
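ELISA read-out: phospho-4E-BP1 captured on Ni-chelate plates and detected with anti-phospho antibody plus HRP-anti-IgG luminescence. The kinase step ran 120 min at ambient temperature with 0.2 nM human mTORC1, 10 µM ATP, 50 nM His-4E-BP1, 10 mM MnCl2, pH 7.2 HEPES.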
On to `CCNc1nc2ccc(-c3ccc4c(c3)CN(c3ncnc(C)c3Cc3ccc(F)cc3)CCO4)cc2[nH]1` [Example 192, N-ethyl-6-(4-{5-[(4-fluorophenyl)methyl]-6-methylpyrimidin-4-yl}-2,3,4,5-tetrahydro-1,4-benzoxazepin-7-yl)-1H-benzimidazol-2-amine], for which the IC50 is no more than 10 nM.
In the case of `Cc1ncnc(N2CCOc3ccc(-c4ccc5[nH]c(NCCF)nc5c4)cc3C2)c1Cc1ccc(F)cc1` [Example 193, N-(2-fluoroethyl)-5-(4-{5-[(4-fluorophenyl)methyl]-6-methylpyrimidin-4-yl}-2,3,4,5-tetrahydro-1,4-benzoxazepin-7-yl)-1H-benzimidazol-2-amine] it was no more than 10 nM; in that of `Cc1ncnc(N2CCOc3ccc(-c4ccc5nc(N)[nH]c5n4)cc3C2)c1Cc1ccc(F)cc1` [Example 194, 5-(4-{5-[(4-fluorophenyl)methyl]-6-methylpyrimidin-4-yl}-2,3,4,5-tetrahydro-1,4-benzoxazepin-7-yl)-3H-imidazo[4,5-b]pyridin-2-amine], 10 to 50 nM.
In the case of `CN(C)c1nc2ccc(-c3ccc4c(c3)CN(c3ccnc5ccccc35)CCO4)cc2[nH]1` [Example 195, N,N-dimethyl-6-(4-quinolin-4-yl-2,3,4,5-tetrahydro-1,4-benzoxazepin-7-yl)-1H-benzimidazol-2-amine] it was 1000 to 2000 nM.
In the case of `COCc1nc2ccc(-c3ccc4c(c3)CN(c3ccnc5ccccc35)CCO4)cc2[nH]1` [Example 196, 7-{2-[(methyloxy)methyl]-1H-benzimidazol-6-yl}-4-quinolin-4-yl-2,3,4,5-tetrahydro-1,4-benzoxazepine] it was no less than 2000 nM; in that of `CCCc1nc2ccc(-c3ccc4c(c3)CN(c3ccnc5ccccc35)CCO4)cc2[nH]1` [Example 197, 7-(2-propyl-1H-benzimidazol-6-yl)-4-quinolin-4-yl-2,3,4,5-tetrahydro-1,4-benzoxazepine], 1000 to 2000 nM; in that of `c1ccc2c(N3CCOc4ccc(-c5ccc6nc(C7CC7)[nH]c6c5)cc4C3)ccnc2c1` [Example 199, 7-(2-cyclopropyl-1H-benzimidazol-6-yl)-4-quinolin-4-yl-2,3,4,5-tetrahydro-1,4-benzoxazepine], 250 to 1000 nM.
As for `c1ccc2c(N3CCOc4ccc(-c5ccc6nc(C7CCCCC7)[nH]c6c5)cc4C3)ccnc2c1` [Example 200, 7-(2-cyclohexyl-1H-benzimidazol-6-yl)-4-quinolin-4-yl-2,3,4,5-tetrahydro-1,4-benzoxazepine], the half-maximal inhibitory concentration (IC50) was in the range of 1000 to 2000 nM.
As for `c1ccc2c(N3CCOc4ccc(-c5ccc6nc(C7CNC7)[nH]c6c5)cc4C3)ccnc2c1` [Example 201, 7-(2-azetidin-3-yl-1H-benzimidazol-6-yl)-4-quinolin-4-yl-2,3,4,5-tetrahydro-1H-benzoxazepine], the IC50 lay in the range of 1000 to 2000 nM.
In the case of `c1ccc2c(N3CCOc4ccc(-c5ccc6nc(C7CCCCN7)[nH]c6c5)cc4C3)ccnc2c1` (centres unmarked) [Example 202, 7-(2-piperidin-2-yl-1H-benzimidazol-6-yl)-4-quinolin-4-yl-2,3,4,5-tetrahydro-1,4-benzoxazepine] it was 250 to 1000 nM.
In the case of `CC(C)c1nc2ccc(-c3ccc4c(c3)CN(c3ccnc5ccccc35)CCO4)cc2[nH]1` [Example 203, 7-[2-(1-methylethyl)-1H-benzimidazol-6-yl]-4-quinolin-4-yl-2,3,4,5-tetrahydro-1,4-benzoxazepine] it was 1000 to 2000 nM; in that of `CSc1nc2ccc(-c3ccc4c(c3)CN(c3ccnc5ccccc35)CCO4)cc2[nH]1` [Example 207, 7-[2-(methylthio)-1H-benzimidazol-6-yl]-4-quinolin-4-yl-2,3,4,5-tetrahydro-1,4-benzoxazepine], 50 to 250 nM.
`CCNc1nc2ccc(-c3ccc4c(c3)CN(c3ccnc5ccccc35)CCO4)cc2[nH]1` [Example 208, N-ethyl-6-(4-quinolin-4-yl-2,3,4,5-tetrahydro-1,4-benzoxazepin-7-yl)-1H-benzimidazol-2-amine]: the IC50 was in the range of 50 to 250 nM.
In the case of `CC(C)Nc1nc2ccc(-c3ccc4c(c3)CN(c3ccnc5ccccc35)CCO4)cc2[nH]1` [Example 209, N-(1-methylethyl)-6-(4-quinolin-4-yl-2,3,4,5-tetrahydro-1,4-benzoxazepin-7-yl)-1H-benzimidazol-2-amine] it was no less than 2000 nM; in that of `COC(=O)Nc1nc2ncc(-c3ccc4c(c3)CN(c3ccnc5cc(OC)c(OC)cc35)CCO4)cc2[nH]1` [Example 210, methyl (6-{4-[6,7-bis(methyloxy)quinolin-4-yl]-2,3,4,5-tetrahydro-1,4-benzoxazepin-7-yl}-1H-imidazo[4,5-b]pyridin-2-yl)carbamate], 250 to 1000 nM.
With `CCN1CCc2c(ncnc2N2CCOc3ccc(-c4ccc5nc(C)[nH]c5c4)cc3C2)C1` [Example 211, 4-(7-ethyl-5,6,7,8-tetrahydropyrido[3,4-d]pyrimidin-4-yl)-7-(2-methyl-1H-benzimidazol-6-yl)-2,3,4,5-tetrahydro-1,4-benzoxazepine] the figure was 1000 to 2000 nM.
Turning to `CC1(C)CCc2ncnc(N3CCOc4ccc(-c5ccc(-c6ncc[nH]6)cc5)cc4C3)c2C1` [Example 213, 4-(6,6-dimethyl-5,6,7,8-tetrahydroquinazolin-4-yl)-7-[4-(1H-imidazol-2-yl)phenyl]-2,3,4,5-tetrahydro-1,4-benzoxazepine], the IC50 was no more than 10 nM.
With `Cc1nc2c(C)cc(-c3ccc4c(c3)CN(c3ncnc5cccnc35)CCO4)cc2[nH]1` [Example 214, 7-(2,4-dimethyl-1H-benzimidazol-6-yl)-4-pyrido[3,2-d]pyrimidin-4-yl-2,3,4,5-tetrahydro-1,4-benzoxazepine] the figure was 250 to 1000 nM; with `CC1(C)CCc2ncnc(N3CCOc4ccc(-c5ccc6nc(NCCF)[nH]c6c5)cc4C3)c2C1` [Example 215, 6-[4-(6,6-dimethyl-5,6,7,8-tetrahydroquinazolin-4-yl)-2,3,4,5-tetrahydro-1,4-benzoxazepin-7-yl]-N-(2-fluoroethyl)-1H-benzimidazol-2-amine], no more than 10 nM.
For `Cc1ncnc(N2CCOc3ccc(-c4cc5[nH]c(N)nc5cn4)cc3C2)c1Cc1ccc(F)cc1` [Example 216, 6-(4-{5-[(4-fluorophenyl)merthyl]-6-methylpyrimidin-4-yl}-2,3,4,5-tetrahydro-1,4-benzoxazepin-7-yl)-1H-imidazo[4,5-c]pyridin-2-amine], the IC50 was in the range of 10 to 50 nM.
In the case of `Cc1ncnc(N2CCOc3ccc(-c4cnc5sc(N)nc5c4)cc3C2)c1Cc1ccc(F)cc1` [Example 217, 6-(4-{5-[(4-fluorophenyl)methyl]-6-methylpyrimidin-4-yl}-2,3,4,5-tetrahydro-1,4-benzoxazepin-7-yl)[1,3]thiazolo[5,4-b]pyridin-2-amine] it was no more than 10 nM; in that of `Cc1ccc2ncnc(N3CCOc4ccc(-c5cnc6nc(N)[nH]c6c5)cc4C3)c2c1` [Example 218, 6-[4-(6-methylquinazolin-4-yl)-2,3,4,5-tetrahydro-1,4-benzoxazpin-7-yl]-1H-imidazo[4,5-b]pyridin-2-amine], no more than 10 nM; in that of `CCc1nc2cc(-c3ccc4c(c3)CN(c3ncnc5c3CC(C)(C)CC5)CCO4)cnc2[nH]1` [Example 220, 4-(6,6-dimethyl-5,6,7,8-tetrahydroquinazolin-4-yl)-7-(2-ethyl-3H-imidazo[4,5-b]pyridin-6-yl)-2,3,4,5-tetrahydro-1,4-benzoxazepine], no more than 10 nM.
With `CC1(C)CCc2ncnc(N3CCOc4ccc(-c5cnc6nc[nH]c6c5)cc4C3)c2C1` [Example 221, 4-(6,6-dimethyl-5,6,7,8-tetrahydroquinazolin-4-yl)-7-(1H-imidazo[4,5-b]pyridin-6-yl)-2,3,4,5-tetrahydro-1,4-benzoxazepine] the figure was no more than 10 nM; with `Cn1ccc2cc(-c3ccc4c(c3)CN(c3ccnc5ccccc35)CCO4)cnc21` [Example 222], 250 to 1000 nM.
As for `CC1(C)CCc2ncnc(N3CCOc4ccc(-c5cnc6[nH]c(C7CC7)nc6c5)cc4C3)c2C1` [Example 224, 7-(2-cyclopropyl-3H-imidazo[4,5-b]pyridin-6-yl)-4-(6,6-dimethyl-5,6,7,8-tetrahydroquinazolin-4-yl)-2,3,4,5-tetrahydro-1,4-benzoxazepine], the IC50 is no more than 10 nM.
In the case of `CCCc1nc2cc(-c3ccc4c(c3)CN(c3ncnc5c3CC(C)(C)CC5)CCO4)cnc2[nH]1` [Example 225, 4-(6,6-dimethyl-5,6,7,8-tetrahydroquinazolin-4-yl)-7-(2-propyl-3H-imidazo[4,5-b]pyridin-6-yl)-2,3,4,5-tetrahydro-1,4-benzoxazepine] it was no more than 10 nM.
With `Nc1ccc(-c2ccc3c(c2)CN(c2ccnc4ccccc24)CCO3)cn1` [Example 226, 5-(4-quinolin-4-yl-2,3,4,5-tetrahydro-1,4-benzoxazepin-7-yl)pyridin-2-amine] the figure was 10 to 50 nM; with `Nc1nc2ncc(-c3ccc4c(c3)CN(c3ncnc5cccnc35)CCO4)cc2[nH]1` [Example 227, 6-(4-pyrido[3,2-d]pyrimidin-4-yl-2,3,4,5-tetrahydro-1,4-benzoxazepin-7-yl)-1H-imidazo[4,5-b]pyridin-2-amine], 50 to 250 nM; with `CCNc1nc2ccc(-c3ccc4c(c3)CN(c3nc(C)nc5ccccc35)CCO4)cc2[nH]1` [Example 228, N-ethyl-6-[4-(2-methylquinazolin-4-yl)-2,3,4,5-tetrahydro-1,4-benzoxazepin-7-yl)-1H-benzimidazol-2-amine], 50 to 250 nM.
In the case of `CC1(C)CCc2ncnc(N3CCOc4ccc(-c5cnc6[nH]c(C(F)F)nc6c5)cc4C3)c2C1` [Example 229, 7-[2-(difluoromethyl)-3H-imidazo[4,5-b]pyridin-6-yl]-4-(6,6-dimethyl-5,6,7,8-tetrahydroquinazolin-4-yl)-2,3,4,5-tetrahydro-1,4-benzoxazepine] it was no more than 10 nM.
In the case of `CCNc1nc2ncc(-c3ccc4c(c3)CN(c3ccncn3)CCO4)cc2[nH]1` [Example 230, N-ethyl-6-(4-pyrimidin-4-yl-2,3,4,5-tetrahydro-1,4-benzoxazepin-7-yl)-1H-imidazo[4,5-b]pyridin-2-amine], the IC50 lay within 50 to 250 nM.

Broadly, the IC50 is the midpoint of a concentration-inhibition curve.

Source of the values: patent US8648066B2 (Exelixis, Inc., priority 2009, dated 2014).
